This experiment deals with BDF1 mice, s.c. Lewis lung carcinoma, T/C %. The experiment can be described thus: NCI In Vivo Anticancer Drug Screen. Data for tumor model Lewis Lung Carcinoma (subcutaneous) in B6D2F1 (BDF1) mice. The method in brief: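 Readout: survival or tumor size, expressed as treated (T) over vehicle control (C). Transplantable tumor implanted in mice; compound given to the treated group.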

Setting [1] is: endpoint: median survival time, dose: 50.0 mg/kg/injection, schedule: Q01DX009 (ip), vehicle: saline, higher = longer survival.

Structures are written as SMILES. “And” between values parts separate entries of the source, which are not always exact repeats. Equal entries are not always repeated. Records with an inconclusive call do not appear.

In the case of `O=C(O)CCCc1ccc(N(CCCl)CCCl)cc1`, the T/C is 66 % of control (endpoint: mean tumor weight, dose: 3.13 mg/kg/injection, schedule: Q01DX011 (ip), vehicle: saline, higher = larger tumour); 54 % of control (endpoint: mean tumor weight, dose: 6.25 mg/kg/injection, schedule: Q01DX011 (ip), vehicle: saline, higher = larger tumour); 55 % of control (endpoint: mean tumor weight, dose: 7.5 mg/kg/injection, schedule: Q01DX011 (ip), vehicle: carboxymethylcellulose (CMC), higher = larger tumour); 26 % of control (endpoint: mean tumor weight, dose: 12.5 mg/kg/injection, schedule: Q01DX011 (ip), vehicle: saline, higher = larger tumour); 113 % of control (endpoint: median survival time, dose: 1.0 mg/kg/injection, schedule: Q01DX009 (ip), vehicle: saline with Tween-80, higher = longer survival); 101 % of control and 124 % of control (endpoint: median survival time, dose: 2.0 mg/kg/injection, schedule: Q01DX009 (ip), vehicle: saline with Tween-80, higher = longer survival). In addition, the T/C is, setting by setting: (endpoint: median survival time, dose: 4.0 mg/kg/injection, schedule: Q01DX001 (ip), vehicle: saline with Tween-80, higher = longer survival) 94 % of control; (endpoint: median survival time, dose: 8.0 mg/kg/injection, schedule: Q01DX001 (ip), vehicle: saline with Tween-80, higher = longer survival) 112 % of control; (endpoint: median survival time, dose: 8.0 mg/kg/injection, schedule: Q01DX009 (ip), vehicle: saline with Tween-80, higher = longer survival) 110 % of control and 114 % of control; (endpoint: median survival time, dose: 16.0 mg/kg/injection, schedule: Q01DX001 (ip), vehicle: saline with Tween-80, higher = longer survival) 107 % of control; (endpoint: median survival time, dose: 32.0 mg/kg/injection, schedule: Q01DX001 (ip), vehicle: saline with Tween-80, higher = longer survival) 89 % of control.

Consider `CC[C@@]1(O)C[C@H](OC2CC(N(C)C)C(OC3CC(O)C(OC4CCC(=O)C(C)O4)C(C)O3)C(C)O2)c2c(cc3c(c2O)C(=O)c2c(O)cccc2C3=O)[C@H]1C(=O)OC` (stereo not given in full), for which, under “endpoint: median survival time, dose: 1.5 mg/kg/injection, schedule: Q01DX009 (ip), vehicle: Klucel (hydroxypropylcellulose) (HPC), higher = longer survival”, the T/C was 104 % of control.

Consider `CCCCOB(/C=C/Sc1ccccc1)OCCCC`, for which, under “endpoint: median survival time, dose: 50.0 mg/kg/injection, schedule: Q01DX009 (ip), vehicle: saline with Tween-80, higher = longer survival”, the T/C was 95 % of control.

With `CC1OC(O[C@@H]2C=C3CC[C@@H]4[C@H](CC[C@]5(C)[C@@H](c6ccc(=O)oc6)CC[C@]45O)[C@@]3(C)CC2)C(O)C(OC2OC(CO)C(O)C(O)C2O)C1O` (stereo not given in full), the T/C is 106 % of control (endpoint: mean tumor weight, dose: 1.2 mg/kg/injection, schedule: Q01DX011 (ip), vehicle: carboxymethylcellulose (CMC), higher = larger tumour); 102 % of control (endpoint: mean tumor weight, dose: 2.5 mg/kg/injection, schedule: Q01DX011 (ip), vehicle: carboxymethylcellulose (CMC), higher = larger tumour); 80 % of control (endpoint: mean tumor weight, dose: 5.0 mg/kg/injection, schedule: Q01DX011 (ip), vehicle: carboxymethylcellulose (CMC), higher = larger tumour).

Regarding `CCN(CC)C(=S)S`, the T/C is 86 % of control (endpoint: mean tumor weight, dose: 125.0 mg/kg/injection, schedule: Q01DX011 (ip), vehicle: saline, higher = larger tumour); 123 % of control and 124 % of control (endpoint: median survival time, dose: 125.0 mg/kg/injection, schedule: Q01DX011 (ip), vehicle: saline, higher = longer survival); 112 % of control and 116 % of control (endpoint: median survival time, dose: 250.0 mg/kg/injection, schedule: Q01DX011 (ip), vehicle: saline, higher = longer survival); 104 % of control and 105 % of control (endpoint: median survival time, dose: 500.0 mg/kg/injection, schedule: Q01DX011 (ip), vehicle: saline, higher = longer survival); 102 % of control and 105 % of control (endpoint: median survival time, dose: 1000.0 mg/kg/injection, schedule: Q01DX011 (ip), vehicle: saline, higher = longer survival).

On to `c1cc2n(n1)CCN2`, for which the T/C is 56 % of control (endpoint: mean tumor weight (est.), dose: 50.0 mg/kg/injection, schedule: Q01DX009 (ip), vehicle: saline, higher = larger tumour); 37 % of control (endpoint: mean tumor weight (est.), dose: 100.0 mg/kg/injection, schedule: Q01DX009 (ip), vehicle: saline, higher = larger tumour); 70 % of control (endpoint: mean tumor weight (est.), dose: 100.0 mg/kg/injection, schedule: Q04DX003 (ip), vehicle: saline, higher = larger tumour); 36 % of control (endpoint: mean tumor weight (est.), dose: 200.0 mg/kg/injection, schedule: Q01DX009 (ip), vehicle: saline, higher = larger tumour); 79 % of control (endpoint: mean tumor weight (est.), dose: 200.0 mg/kg/injection, schedule: Q04DX003 (ip), vehicle: saline, higher = larger tumour); 57 % of control (endpoint: mean tumor weight (est.), dose: 400.0 mg/kg/injection, schedule: Q04DX003 (ip), vehicle: saline, higher = larger tumour). Further, the T/C was 97 % of control (endpoint: mean tumor weight, dose: 25.0 mg/kg/injection, schedule: Q01DX011 (ip), vehicle: saline, higher = larger tumour); 84 % of control (endpoint: mean tumor weight, dose: 50.0 mg/kg/injection, schedule: Q01DX011 (ip), vehicle: saline, higher = larger tumour); 82 % of control (endpoint: mean tumor weight, dose: 100.0 mg/kg/injection, schedule: Q01DX011 (ip), vehicle: saline, higher = larger tumour); 7 % of control (endpoint: mean tumor weight, dose: 200.0 mg/kg/injection, schedule: Q01DX011 (ip), vehicle: saline, higher = larger tumour); 122 % of control under setting [1]; 100 % of control (endpoint: median survival time, dose: 100.0 mg/kg/injection, schedule: Q01DX009 (ip), vehicle: saline, higher = longer survival). Also, the T/C by setting is: (endpoint: median survival time, dose: 100.0 mg/kg/injection, schedule: Q04DX003 (ip), vehicle: saline, higher = longer survival) 102 % of control; (endpoint: median survival time, dose: 200.0 mg/kg/injection, schedule: Q01DX009 (ip), vehicle: saline, higher = longer survival) 100 % of control; (endpoint: median survival time, dose: 400.0 mg/kg/injection, schedule: Q04DX003 (ip), vehicle: saline, higher = longer survival) 88 % of control.

Regarding `CCCCCCCCSC1=C(Cl)C(=O)C(OC)=C(OC)C1=O`, the T/C (endpoint: median survival time, dose: 12.5 mg/kg/injection, schedule: Q01DX009 (ip), vehicle: other, higher = longer survival) is 92 % of control.

With `CC(C)=CCC1=C(O)c2ccccc2C(=O)C1=O`, the T/C by setting is: (endpoint: mean tumor weight, dose: 45.0 mg/kg/injection, schedule: Q01DX011 (ip), vehicle: water, higher = larger tumour) 71 % of control; (endpoint: mean tumor weight, dose: 67.0 mg/kg/injection, schedule: Q01DX011 (ip), vehicle: water, higher = larger tumour) 85 % of control; (endpoint: mean tumor weight, dose: 100.0 mg/kg/injection, schedule: Q01DX011 (ip), vehicle: water, higher = larger tumour) 93 % of control.

Turning to `COc1ccc2c3c(c4cc(OC)c(OC)cc4c2c1)C[C@H]1CCCCN1C3`, the T/C runs as follows: (endpoint: mean tumor weight, dose: 0.25 mg/kg/injection, schedule: Q01DX011 (ip), vehicle: other, higher = larger tumour) 90 % of control and 100 % of control; (endpoint: mean tumor weight, dose: 0.5 mg/kg/injection, schedule: Q01DX011 (ip), vehicle: other, higher = larger tumour) 190 % of control; (endpoint: mean tumor weight, dose: 0.75 mg/kg/injection, schedule: Q01DX011 (ip), vehicle: other, higher = larger tumour) 87 % of control.

As to `O=CN(O)CC(=O)O`, where the note is “endpoint: median survival time, dose: 3000.0 mg/kg/injection, schedule: Q01DX001 (ip), vehicle: saline, higher = longer survival”, the T/C is 115 % of control.

For `CCCCOC(=O)Nc1ccc(OCC)cc1`, the T/C by setting is: (endpoint: mean tumor weight, dose: 35.0 mg/kg/injection, schedule: Q01DX011 (ip), vehicle: carboxymethylcellulose (CMC), higher = larger tumour) 63 % of control; (endpoint: mean tumor weight, dose: 70.0 mg/kg/injection, schedule: Q01DX011 (ip), vehicle: carboxymethylcellulose (CMC), higher = larger tumour) 85 % of control; (endpoint: mean tumor weight, dose: 140.0 mg/kg/injection, schedule: Q01DX011 (ip), vehicle: carboxymethylcellulose (CMC), higher = larger tumour) 68 % of control; (endpoint: mean tumor weight, dose: 280.0 mg/kg/injection, schedule: Q01DX011 (ip), vehicle: carboxymethylcellulose (CMC), higher = larger tumour) 69 % of control.

For `CCC[CH2][Sn]1([CH2]CCC)[O]OC(c2ccc(C)cc2)[O]1` (stereo not given), the T/C by setting is: (endpoint: median survival time, dose: 0.19 mg/kg/injection, schedule: Q01DX009 (ip), vehicle: saline with Tween-80, higher = longer survival) 98 % of control; (endpoint: median survival time, dose: 0.75 mg/kg/injection, schedule: Q01DX009 (ip), vehicle: saline with Tween-80, higher = longer survival) 107 % of control; (endpoint: median survival time, dose: 1.5 mg/kg/injection, schedule: Q01DX009 (ip), vehicle: saline with Tween-80, higher = longer survival) 98 % of control; (endpoint: median survival time, dose: 3.0 mg/kg/injection, schedule: Q01DX009 (ip), vehicle: saline with Tween-80, higher = longer survival) 119 % of control; (endpoint: median survival time, dose: 3.13 mg/kg/injection, schedule: Q01DX009 (ip), vehicle: saline with Tween-80, higher = longer survival) 121 % of control.

For `COc1ccc(CN2CCCN(Cc3ccc(OC)cc3)C2c2ccc(Cl)cc2Cl)cc1`, the T/C runs as follows: (endpoint: mean tumor weight, dose: 74.0 mg/kg/injection, schedule: Q01DX011 (ip), vehicle: other, higher = larger tumour) 119 % of control; (endpoint: mean tumor weight, dose: 166.0 mg/kg/injection, schedule: Q01DX011 (ip), vehicle: other, higher = larger tumour) 111 % of control.

Take `ClCCCN1CCCCC1CCl` (stereo not given): the T/C was 96 % of control (endpoint: median survival time, dose: 3.12 mg/kg/injection, schedule: Q04DX003 (ip), vehicle: saline, higher = longer survival); 113 % of control (endpoint: median survival time, dose: 6.25 mg/kg/injection, schedule: Q04DX003 (ip), vehicle: saline, higher = longer survival); 104 % of control (endpoint: median survival time, dose: 12.5 mg/kg/injection, schedule: Q04DX003 (ip), vehicle: saline, higher = longer survival).

In the case of `CC1(c2ccc(N(CCCl)CCCl)cc2)NC(=O)NC1=O` (stereo not given), the T/C (endpoint: median survival time, dose: 12.5 mg/kg/injection, schedule: Q01DX009 (ip), vehicle: Klucel (hydroxypropylcellulose) (HPC), higher = longer survival) is 111 % of control; the T/C (endpoint: median survival time, dose: 25.0 mg/kg/injection, schedule: Q01DX009 (ip), vehicle: Klucel (hydroxypropylcellulose) (HPC), higher = longer survival) is 91 % of control; the T/C (endpoint: median survival time, dose: 50.0 mg/kg/injection, schedule: Q01DX009 (ip), vehicle: Klucel (hydroxypropylcellulose) (HPC), higher = longer survival) was 98 % of control; the T/C (endpoint: median survival time, dose: 100.0 mg/kg/injection, schedule: Q01DX009 (ip), vehicle: Klucel (hydroxypropylcellulose) (HPC), higher = longer survival) is 115 % of control.

On to `COC1=NCN=C2SC=C(N)N=C12`, for which the T/C runs as follows: (endpoint: median survival time, dose: 12.5 mg/kg/injection, schedule: Q01DX009 (ip), vehicle: saline, higher = longer survival) 107 % of control; (endpoint: median survival time, dose: 25.0 mg/kg/injection, schedule: Q01DX009 (ip), vehicle: saline, higher = longer survival) 122 % of control; under setting [1], 110 % of control.

The values above are taken from PubChem BioAssay AID270 (DTP/NCI, 2004).
